Test results: publication PMC6528491 (Frontiers in Pharmacology, 2019)
Converted amounts (≈) assume the structure as drawn. Where two headings read alike, the source gives them in different places.

Legend:
[1] = rats, cited from earlier work
[2] = cited from earlier work
Excerpt: After oral administration, BG is rapidly hydrolyzed to baicalein ...

Caco2 cell system = conditions: Caco-2; cited from earlier work
[3] = Population pharmacokinetic analysis of CsA (NONMEM, two-compartment model with transit compartments); type: in vivo, healthy Chinese volunteers; conditions: 95% CIs from 1,000 bootstrap samples included 1.0 and were inside 0.8–1.25
[4] = intravenous high BG doses (0.23–0.90g/kg) to rats; ref Xin et al., 2013; cited from earlier work
[5] = design: method as in 2 sources, ref Wu et al., 2005 ||| ref Li et al., 2014; conditions: cited from earlier work
P-gp = conditions: rats; after multiple oral doses of BG; ref Tian et al., 2019; cited from earlier work
[6] = Clinical drug-drug interaction study, non-compartmental pharmacokinetics of CsA in blood; type: in vivo, healthy Chinese volunteers; conditions: single 500 mg BG dose with 200 mg CsA; healthy volunteers; NCA
Description: The study was a single center, open-labeled, two-period, fixed-sequence clinical trial. […] Water intake was allowed 2 h after administration of the drug. All participants were given a standardized meal 4 h after dosing. […] Blood samples were withdrawn using vacuum tubes containing EDTA-K2 and immediately transferred to labeled tubes. The samples were stored at −80°C for subsequent analysis. […] Processing of the whole blood samples involved a two-step protein precipitation. Fifty microliters of zinc sulfate (10 mM) were added to 50 μl of a sample. […] After centrifugation, an aliquot (2 μl) of the supernatant was then injected onto an ultra high-performance liquid chromatography coupled with tandem mass spectrometry (UHPLC–MS/MS) device for analysis. UHPLC–MS/MS was performed using an ExionLC™ analytical UHPLC system (AB Sciex, MA, USA), coupled with a Qtrap 4,500 mass spectrometer (AB Sciex, Framingham, MA, USA), equipped with the Turbo lonSpray interface. […] The protonated analyte ions were detected in positive ionization and multiple reaction monitoring modes. […] Calibration curves were linear over the concentration range of 10–3,000 ng/ml. […] Exploratory statistical comparisons of pharmacokinetic parameters between male and female subjects were performed by the t-test for independent data. […]

CYP3A4 = conditions: cited from earlier work
[7] = design: method as in 2 sources, one per row (each row's own in cited_ref): ref Albengres and Tillement, 1992; Keogh et al., 1995 ||| ref Atiq et al., 2016; conditions: ref Albengres and Tillement, 1992; Keogh et al., 1995; cited from earlier work
[8] = multiple oral administrations of BG 80 mg/kg, ref Tian et al., 2019
[9] = single dose of BG 136.6 mg/kg, ref Lai et al., 2004

O=C(O)[C@H]1O[C@@H](Oc2cc3oc(-c4ccccc4)cc(=O)c3c(O)c2O)[C@H](O)[C@@H](O)[C@@H]1O [BG, baicalein 7-O-glucuronide]
Effect on the exposure of CsA ([1]; multiple intravenous doses of BG, ref Tian et al., 2019): did not affect the exposure of CsA | Decrease of AUC0-∞ of CsA [1, 8]: 25% | Decrease of Cmax of CsA [1, 8]: 38% | Effect on Cmax and AUC0-∞ of CsA ([1]; oral administration of BG, ref Tian et al., 2019): significantly decreased | Effect on exposure to CsA ([1]; ref Lai et al., 2004): increased exposure to oral CsA | Elevation of AUC of CsA compared with CsA alone [1, 9]: ~6 times | Elevation of Cmax of CsA compared with CsA alone [1, 9]: about 4 times | Effect on the pharmacokinetics of CsA ([1]; single intravenous dose and multiple doses of BG, ref Tian et al., 2019): had no effect | Bound to proteins ([2]; human plasma, ref Tang et al., 2006): 86–92% | Solubility ([2]; in water, ref Wu et al., 2011): 0.057 mg/mL (≈ 128 µM) | Elimination half-life ([2]; ref Noh et al., 2016): 6.36 ± 5.85 h | Oral bioavailability ([2]; ref Wu et al., 2014): 2.2% | Papp (Caco2 cell system): 0.275 ± 1.14 × 10^−6 cm/s | Effect of factor BG co-treatment on popPK parameters of CsA (except Ka and Q) [3]: did not affect the respective pharmacokinetic parameters of CsA to a clinically relevant extent | Decrease of the clearance of midazolam [4]: up to 43% | AUC of BG ([5]; after oral administration of 750 mg BG, healthy subjects, ref Wu et al., 2005): 613 ng·h/mL | Tmax ([5]; oral BG, ref Wu et al., 2005): 7.4 h | Expression of P-gp in the intestine (P-gp): increased | Expression of P-gp in the liver (P-gp): not changed | Effect of BG co-administration on the exposure of CsA [6]: no clinically relevant effect

O=c1cc(-c2ccccc2)oc2cc(O)c(O)c(O)c12 [B, baicalein]
Ki (CYP3A4): 2300 nM | Papp (Caco2 cell system): 9e-06 cm/s | Exposure to BG relative to exposure to B ([5]; B single doses to healthy volunteers, ref Li et al., 2014): more than 10 fold | AUC of BG ([5]; after oral administration of 100 mg B, healthy volunteers, ref Li et al., 2014): 580 ng·h/mL | Tmax for both BG and B ([5]; oral B, ref Li et al., 2014): about 1 h

CC(=O)N1CCN(c2ccc(OCC3COC(Cn4ccnc4)(c4ccc(Cl)cc4Cl)O3)cc2)CC1 (centres unmarked) [ketoconazole]
Elevation of CsA concentrations by concomitant administration [7]: several-fold
